Results taken from patent publication US9150592B2, “Heterocyclic nuclear hormone receptor modulators” (AbbVie Inc., priority 2012, dated 2015).

What was measured:
[1] = molecular target: T1, Glucocorticoid Receptor (GR) (Homo sapiens, UniProt P04150); test: GR Fluorescence Polarization Assay (PolarScreen Glucocorticoid Receptor Competitor Assay, Red); details: IC50 class ranges, read-out: GR binding
T1 construct: purchased Invitrogen P2893
T1 sequence (P04150 1-777): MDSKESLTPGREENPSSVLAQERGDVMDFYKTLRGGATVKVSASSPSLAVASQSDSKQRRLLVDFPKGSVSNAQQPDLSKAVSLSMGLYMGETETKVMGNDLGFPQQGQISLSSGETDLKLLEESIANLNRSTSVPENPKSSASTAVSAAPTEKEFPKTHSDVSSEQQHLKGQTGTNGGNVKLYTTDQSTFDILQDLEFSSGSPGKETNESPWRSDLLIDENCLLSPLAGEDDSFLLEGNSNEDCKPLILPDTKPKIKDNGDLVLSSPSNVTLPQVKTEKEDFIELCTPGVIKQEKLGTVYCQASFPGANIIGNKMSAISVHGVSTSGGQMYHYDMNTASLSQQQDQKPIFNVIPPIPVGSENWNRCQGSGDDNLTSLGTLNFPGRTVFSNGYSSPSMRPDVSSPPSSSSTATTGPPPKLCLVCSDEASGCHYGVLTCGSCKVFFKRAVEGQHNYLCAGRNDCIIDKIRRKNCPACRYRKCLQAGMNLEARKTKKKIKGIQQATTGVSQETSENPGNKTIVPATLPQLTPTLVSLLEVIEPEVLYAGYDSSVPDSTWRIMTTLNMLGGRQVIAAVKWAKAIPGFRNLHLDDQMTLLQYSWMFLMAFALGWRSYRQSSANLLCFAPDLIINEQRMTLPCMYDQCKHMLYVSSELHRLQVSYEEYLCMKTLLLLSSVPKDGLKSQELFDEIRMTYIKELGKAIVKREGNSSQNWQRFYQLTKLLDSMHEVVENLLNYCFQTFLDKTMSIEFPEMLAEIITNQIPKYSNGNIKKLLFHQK
Procedure, shortened: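 Competitive fluorescence-polarization assay using a red fluorescent glucocorticoid tracer with human GR in kit buffer. Compounds serially diluted 1:4 in DMSO, incubated with tracer and GR overnight at 4° C, then polarization read.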

[2] = system: IL-6 in A549 cells stimulated with IL-1β; test: A549 Cell Assay to Measure Inflammation Markers (inhibition of IL-1β-induced IL-6); assay type: cell-based; details: Homo sapiens, A549, A549 Cell Assay to Measure Inflammation Markers; intrinsic activity, Emax class ranges
Procedure, shortened: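 Compound pre-incubated with A549 cells 1 h at 37 °C, then stimulated with IL-1β (1 ng/mL final, 0.1% DMSO). Supernatant IL-6 quantified by MSD immunoassay after a further incubation. IC50 and Emax derived.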

For `CN(C)c1ccc(C2SCCNc3c2c(-c2ccccn2)nn3C)c(Cl)c1` (stereo not shown) [D.6], the IC50 [1] was 100 to 1000 nM and the Emax [2] was less than 50%.
`Cc1cc(OC(F)(F)F)ccc1C1SCCNc2c1c(-c1ccccn1)nn2C` (stereo not shown) [D.12] was tested, and the IC50 [1] was less than 100 nM and the Emax [2] was less than 50%.
With `CCn1nc(-c2ccccn2)c2c1NCCSC2c1ccc(C(=O)Nc2n[nH]c(C)c2C#N)cc1C` (stereo not shown) [S.9] the IC50 [1] was less than 100 nM and the Emax [2] was less than 50%.
For `Cn1nc(C2CC2)c2c1NCC(C)(C)SC2c1ccc(Cl)cc1Cl` (stereo not shown) [D.74], the IC50 [1] was less than 100 nM and the Emax [2] was less than 50%.
Work on `Cc1cc(Cl)ccc1[C@H]1S[C@H](CCO)CNc2c1c(C)nn2C` (single isomer, unassigned) [M.14, 2-[4-(4-chloro-2-methyl-phenyl)-1,3-dimethyl-4,6,7,8-tetrahydro-1H-pyrazolo[3,4-e][1,4]thiazepin-6-yl]-ethanol] yielded an IC50 [1] of 100 to 1000 nM and an Emax [2] greater than 70%.
For `CC(C)c1nn(C)c2c1C(c1ccc(Cl)cc1Cl)SC(C)(C)CN2` (stereo not shown) [D.64], the IC50 [1] was 100 to 1000 nM and the Emax [2] was less than 50%.
With `Cc1ccc(C2SCCNc3c2c(-c2ccccn2)nn3C)c(C)c1` (stereo not shown) [D.9] the IC50 [1] was less than 100 nM and the Emax [2] was less than 50%.
In the case of `Cc1cc(Cl)ccc1C1SCCNc2nn(C)cc21` (stereo not shown) [D.13], the IC50 [1] is reported as 1000 to 10000 nM and the Emax [2] is reported as less than 50%.
For `Cc1cc(Br)ccc1C1SC(C)CNc2c1c(C)nn2C` (stereo not shown) [D.62, 4-(4-bromo-2-methyl-phenyl)-1,3,6-trimethyl-4,6,7,8-tetrahydropyrazolo[3,4-e][1,4]thiazepine], the IC50 [1] was 100 to 1000 nM and the Emax [2] was less than 50%.
With `CCn1nc(-c2ccccn2)c2c1NCCSC2c1ccc(C(=O)Nc2cccnc2C)cc1C` (single isomer, unassigned) [M.62, 4-(1-ethyl-3-(pyridin-2-yl)-4,6,7,8-tetrahydro-1H-pyrazolo[3,4-e][1,4]thiazepin-4-yl)-3-methyl-N-(2-methylpyridin-3-yl)benzamide] the IC50 [1] was less than 100 nM and the Emax [2] was greater than 70%.
With `Cc1cc(Cl)ccc1C1SCCNc2c1c(-c1ccccn1)nn2C(C)C` (stereo not shown) [D.105] the IC50 [1] was less than 100 nM and the Emax [2] was greater than 60%.
For `Cc1cc(C(=O)Nc2cccnc2C)ccc1C1SCCNc2c1c(-c1ccccn1)nn2C` (stereo not shown), the IC50 [1] was less than 100 nM and the Emax [2] was greater than 70%.
`CC1=Nc2c(c(-c3ccccn3)nn2C)C(c2ccc(Cl)cc2C)SC1` (stereo not shown) gave an IC50 [1] of 100 to 1000 nM and an Emax [2] of less than 50%.
`Cc1cc(S(C)(=O)=O)ccc1C1SC(C)(C)CNc2c1c(C)nn2C` (stereo not shown) [D.71] showed an IC50 [1] of 1000 to 10000 nM and an Emax [2] of less than 50%.
With `COc1ccc(C)c(C2SCCNc3c2c(-c2ccccn2)nn3C)c1` (stereo not shown) [D.28] the IC50 [1] was 1000 to 10000 nM and the Emax [2] was less than 50%.
Molecule `COc1ccnc(-c2nn(C)c3c2C(c2ccc(Cl)cc2C)SCCN3)c1` (stereo not shown) [D.22] has an IC50 [1] of less than 100 nM and an Emax [2] of less than 50%.
`Cc1cc(Cl)ccc1[C@H]1SC(C)(C)CNc2c1c(C)nn2C` (single isomer, unassigned) [M.6] gave an IC50 [1] of less than 100 nM and an Emax [2] of less than 50%.
`Cc1ccc(C#N)cc1C1SCCNc2c1c(-c1ccccn1)nn2C` (stereo not shown) [G.1, 4-methyl-3-[1-methyl-3-(2-pyridyl)-4,6,7,8-tetrahydropyrazolo[3,4-e][1,4]thiazepin-4-yl]benzonitrile] was tested, and the IC50 [1] was 100 to 1000 nM and the Emax [2] was less than 50%.
Molecule `Cc1cc(Cl)ccc1[C@H]1S[C@@H](CCO)CNc2c1c(-c1ccccn1)nn2C` (single isomer, unassigned) [M.10, 2-(4-(4-chloro-2-methylphenyl)-1-methyl-3-(pyridin-2-yl)-4,6,7,8-tetrahydro-1H-pyrazolo[3,4-e][1,4]thiazepin-6-yl)ethanol] has an IC50 [1] of 1000 to 10000 nM and an Emax [2] of less than 50%.
Molecule `CCc1cc(Cl)ccc1C1SCCNc2c1c(-c1ccccn1)nn2C` (stereo not shown) has an IC50 [1] of less than 100 nM and an Emax [2] greater than 50%.
